In data set [1] the target is Serine/threonine-protein kinase pim-2 (Homo sapiens) (UniProt Q9P1W9). In words: Inhibition of recombinant full length GST-tagged human PIM2 expressed in baculovirus expression system at 0.5 uM using Ser/Thr 07 as substrate in presence of ATP at Km concentration after 1 hr by Z'-LYTE assay relative to control.
A short description of data set [2]: Metabolic stability in mouse liver microsomes assessed as compound remaining at 1 uM measured up to 1 hr in absence of NADPH by LC-MS/MS analysis. It is filed as ADME, Microsome. The settings on record: read-out: Stability.
Data set [3] deals with A549. In words: Antimetastatic activity against human A549 cells assessed as reduction in number of cell migration after 72 hrs by crystal violet staining based transwell assay. Type of data set: functional.
For data set [4], the target named is Tyrosine-protein kinase Lck (Homo sapiens) (UniProt P06239). In words: Inhibition of recombinant full length His-tagged human LCK expressed in baculovirus expression system at 0.5 uM using tyr 02 as substrate in presence of ATP at Km concentration after 1 hr by Z'-LYTE assay relative to control.
Data set [5] addresses Tyrosine-protein kinase ZAP-70 (Homo sapiens) (UniProt P43403). In words: Inhibition of recombinant full length His-tagged human ZAP70 expressed in baculovirus expression system at 0.5 uM using tyr 07 as substrate in presence of ATP at Km concentration after 1 hr by Z'-LYTE assay relative to control.
Data set [6] concerns the target Fibroblast growth factor receptor 1 (Homo sapiens) (UniProt P11362). Kind of data set: Inhibition of recombinant His-tagged human FGFR1 (308 to 731 resides) expressed in baculovirus expression system at 0.5 uM using tyr 04 as substrate in presence of ATP at Km concentration after 1 hr by Z'-LYTE assay relative to control.
Data set [7] relates to A549. In words: Induction of apoptosis in human A549 cells assessed as viable cells at 3 uM after 72 hrs by Annexin V-FITC/propidium iodide staining-based flow cytometric analysis (reference value: 94.66%). Type of data set: functional. The note with it: A549, 72 h, read-out: Activity.
The next data set concerns HK-2. In words: cells. The note with it: Homo sapiens, HK-2, 72 h.
A short description of data set [8]: Intrinsic clearance in rat liver microsomes at 1 uM measured up to 1 hr in presence of NADPH by LC-MS/MS analysis. The settings on record: read-out: CLH. Type of data set: ADME, Microsome. In general terms: Liver microsomes are a subcellular fraction often used to study metabolism.
In another data set the target is CYP3A4 (Homo sapiens, UniProt P08684). In words: Inhibition of CYP3A4 in human pooled liver microsomes at 10 uM using midazolam as substrate preincubated for 10 mins followed by NADPH addition and measured after 15 mins by LC/MS/MS analysis relative to control. Type of data set: ADME. The settings on record: probe midazolam.

Bounds are passed on as bounds.

Sequence of Fibroblast growth factor receptor 1 (Homo sapiens) (P11362 22-822 limits assumed): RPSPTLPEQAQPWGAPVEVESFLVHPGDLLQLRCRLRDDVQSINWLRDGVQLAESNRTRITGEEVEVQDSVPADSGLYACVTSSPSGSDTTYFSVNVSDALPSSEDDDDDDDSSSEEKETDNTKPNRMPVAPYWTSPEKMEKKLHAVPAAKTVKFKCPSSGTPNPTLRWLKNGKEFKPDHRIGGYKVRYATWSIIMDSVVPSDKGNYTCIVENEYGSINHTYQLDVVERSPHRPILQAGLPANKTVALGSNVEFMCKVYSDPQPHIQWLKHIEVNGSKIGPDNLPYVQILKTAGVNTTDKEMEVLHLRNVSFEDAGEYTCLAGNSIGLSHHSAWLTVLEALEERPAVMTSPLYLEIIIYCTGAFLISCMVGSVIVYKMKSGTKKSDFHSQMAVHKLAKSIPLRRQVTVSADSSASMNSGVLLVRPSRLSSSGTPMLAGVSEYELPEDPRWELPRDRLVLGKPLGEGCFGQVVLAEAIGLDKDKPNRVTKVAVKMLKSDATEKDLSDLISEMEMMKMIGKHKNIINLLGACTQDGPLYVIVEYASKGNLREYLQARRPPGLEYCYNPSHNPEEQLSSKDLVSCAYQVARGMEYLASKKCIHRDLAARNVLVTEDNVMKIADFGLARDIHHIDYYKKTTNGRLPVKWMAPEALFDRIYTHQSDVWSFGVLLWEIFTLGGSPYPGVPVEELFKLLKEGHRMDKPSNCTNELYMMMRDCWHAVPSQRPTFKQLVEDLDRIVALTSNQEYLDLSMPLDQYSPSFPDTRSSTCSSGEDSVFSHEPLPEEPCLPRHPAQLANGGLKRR
Sequence of CYP3A4 (P08684 whole entry): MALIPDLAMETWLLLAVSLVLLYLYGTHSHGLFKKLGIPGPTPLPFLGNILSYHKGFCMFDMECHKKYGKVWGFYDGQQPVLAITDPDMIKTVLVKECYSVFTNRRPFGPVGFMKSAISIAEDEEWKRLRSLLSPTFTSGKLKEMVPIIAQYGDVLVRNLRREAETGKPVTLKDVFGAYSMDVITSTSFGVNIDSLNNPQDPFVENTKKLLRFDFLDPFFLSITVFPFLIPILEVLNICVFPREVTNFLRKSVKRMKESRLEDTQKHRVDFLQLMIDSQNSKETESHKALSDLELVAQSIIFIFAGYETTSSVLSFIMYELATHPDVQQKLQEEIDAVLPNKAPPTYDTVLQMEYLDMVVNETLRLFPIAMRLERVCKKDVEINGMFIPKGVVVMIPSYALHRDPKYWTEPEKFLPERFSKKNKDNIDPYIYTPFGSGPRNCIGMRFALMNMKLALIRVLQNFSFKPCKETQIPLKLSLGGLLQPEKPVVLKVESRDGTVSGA
Sequence of Tyrosine-protein kinase ZAP-70 (Homo sapiens) (P43403 whole entry): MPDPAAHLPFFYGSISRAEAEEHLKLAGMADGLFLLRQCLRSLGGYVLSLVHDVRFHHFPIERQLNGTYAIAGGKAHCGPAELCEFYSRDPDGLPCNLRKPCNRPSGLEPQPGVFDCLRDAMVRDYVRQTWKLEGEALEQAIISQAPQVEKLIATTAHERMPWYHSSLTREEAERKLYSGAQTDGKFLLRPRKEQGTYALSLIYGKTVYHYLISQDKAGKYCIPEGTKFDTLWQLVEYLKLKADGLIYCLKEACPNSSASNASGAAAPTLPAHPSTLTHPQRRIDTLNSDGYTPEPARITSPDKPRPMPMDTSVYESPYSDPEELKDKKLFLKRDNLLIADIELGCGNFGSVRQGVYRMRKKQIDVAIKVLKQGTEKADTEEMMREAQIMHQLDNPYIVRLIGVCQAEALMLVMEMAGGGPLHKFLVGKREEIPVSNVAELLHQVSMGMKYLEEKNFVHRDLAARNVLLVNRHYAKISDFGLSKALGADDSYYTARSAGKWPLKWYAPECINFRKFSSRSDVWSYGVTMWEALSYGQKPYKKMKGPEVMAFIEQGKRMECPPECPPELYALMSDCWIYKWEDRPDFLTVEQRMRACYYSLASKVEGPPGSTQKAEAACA
Sequence of Tyrosine-protein kinase Lck (Homo sapiens) (P06239 2-509 limits assumed): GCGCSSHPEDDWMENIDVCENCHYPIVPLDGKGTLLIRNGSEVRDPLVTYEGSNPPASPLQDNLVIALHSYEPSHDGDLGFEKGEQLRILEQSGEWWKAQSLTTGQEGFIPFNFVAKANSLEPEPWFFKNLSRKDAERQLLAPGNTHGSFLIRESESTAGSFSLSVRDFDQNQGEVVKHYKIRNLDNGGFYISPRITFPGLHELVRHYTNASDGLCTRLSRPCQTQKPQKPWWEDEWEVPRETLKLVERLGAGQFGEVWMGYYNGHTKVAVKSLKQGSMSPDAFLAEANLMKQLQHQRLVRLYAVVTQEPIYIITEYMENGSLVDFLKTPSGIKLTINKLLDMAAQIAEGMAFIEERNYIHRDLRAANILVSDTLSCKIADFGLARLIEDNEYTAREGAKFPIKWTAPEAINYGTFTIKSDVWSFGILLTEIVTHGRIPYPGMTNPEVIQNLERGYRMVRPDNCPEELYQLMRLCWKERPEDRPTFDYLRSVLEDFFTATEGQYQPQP
Sequence of Serine/threonine-protein kinase pim-2 (Homo sapiens) (Q9P1W9 whole entry, looked up): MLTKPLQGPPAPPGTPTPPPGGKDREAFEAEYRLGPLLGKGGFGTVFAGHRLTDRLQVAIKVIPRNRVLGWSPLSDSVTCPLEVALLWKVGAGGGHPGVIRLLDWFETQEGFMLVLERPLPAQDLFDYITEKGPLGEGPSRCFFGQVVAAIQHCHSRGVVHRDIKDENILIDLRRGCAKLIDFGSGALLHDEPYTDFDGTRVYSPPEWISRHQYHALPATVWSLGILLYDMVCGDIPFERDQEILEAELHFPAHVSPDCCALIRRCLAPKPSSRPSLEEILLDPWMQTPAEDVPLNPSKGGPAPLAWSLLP
Description for HK-2: Cytotoxicity against human HK2 cells assessed as reduction in cell viability after 72 hrs by MTT assay

For `COc1cc(C(=O)NC2CCNCC2)ccc1Nc1nc(Nc2ccccc2P(C)(C)=O)c2cc[nH]c2n1`, the inhibition is -3% in data set [1], 14% in data set [4], -3% in data set [5] and 6% in data set [6]. In addition, in data set [2], the remaining at 1 h, 1 µM came to 78%. In addition, the Activity result with A549 [3] was “Dose-dependent effect”. In addition, the viability at 3 µM in the data set on A549 [7] is 52.9%. This compound also yielded an IC50 with HK-2 greater than 25 µM. Besides, the microsomal CLint at 1 µM in data set [8] is less than 9.6 µL/min/mg. At CYP3A4, the inhibition at 0.25 h, 10 µM worked out at 10.5%.

As a reminder, the inhibition is the relative decrease from the control value, in per cent. For orientation: IC50 means the midpoint of a concentration-inhibition curve.

Values taken from ChEMBL document CHEMBL4311976, “Design, synthesis and biological evaluation of novel 7H-pyrrolo[2,3-d]pyrimidine derivatives as potential FAK inhibitors and anticancer agents” (Eur J Med Chem, 2019).
